One data set relates to HDL cholesterol. Put plainly: in vivo standard pharmacological test procedure measuring elevation of HDL cholesterol levels in cholesterol/cholic acid-fed rats. On the set-up: species or system Male Sprague-Dawley rats. As to conditions: serum, eight days of treatment; for change in vivo at 50 mg/kg: dose 50 mg/kg mixed in diet; for change in vivo at 100 mg/kg / HDL Cholesterol Level Increase (%): dose 100 mg/kg mixed in diet. Here is the method: Representative compounds of this invention were evaluated in an in vivo standard pharmacological test procedure which measured the ability of the compounds of this invention to elevate HDL cholesterol levels. The following briefly describes the procedure used and results obtained. Male Sprague-Dawley rats weighing 200-225 g were housed two per cage and fed Purina Rodent Chow Special Mix 5001-S supplemented with 0.25% cholic acid and 1.0% cholesterol and water ad libitum for 8 days. Each test substance was administered to a group of six rats fed the same diet with the test diet mixed in as 0.005-0.1% of the total diet. Body weight and food consumption were recorded prior to diet administration and at termination. Typical doses of the test substances were 5-100 mg/kg/day.
At termination, blood was collected from anesthetized rats and the serum was separated by centrifugation. Total serum cholesterol was assayed using the Sigma Diagnostics enzymatic kit for the determination of cholesterol, Procedure No. 352, modified for use with ninety-six well microtiter plates. After reconstitutiton with water the reagent contains 300 U/l cholesterol oxidase, 100 U/l cholesterol esterase, 1000 U/l horse radish peroxidase, 0.3 mmol/l 4-aminoantipyrine and 30.0 mmol/l p-hydroxybenzene sulfonate in a pH 6.5 buffer. In the reaction cholesterol was oxidized to produce hydrogen peroxide which was used to form a quinoneimine dye. The concentration of dye formed was measured spectrophotometrically by absorbance at 490 nm after incubation at 25° C. for 30 minutes. The concentration of cholesterol was determined for each serum sample relative to a commercial standard from Sigma.
HDL cholesterol concentrations in serum were determined by separation of lipoprotein classes by fast protein liquid chromatography (FPLC) by a modification of the method of Kieft et al., (J. Lipid Res., 32, 859-866 (1991). Using this methodology, […] of serum was injected onto Superose 12 and Superose 6 (Pharmacia), in series, with a column buffer of 0.05 M Tris (2-amino-2-hydroxymethyl-1,3-propanediol) and 0.15 M sodium chloride at a flow rate of 0.5 mL/min. The eluted sample was mixed on line with Boehringer-Mannheim cholesterol reagent pumped at 0.2 mL/min. The combined eluents were mixed and incubated on line through a knitted coil (Applied Biosciences) maintained at a temperature of 45° C. The eluent was monitored by measuring absorbance at 490 nm and gives a continuous absorbance signal proportional to the cholesterol concentration. The relative concentration for each lipoprotein class was calculated as the percent of total absorbance. HDL cholesterol concentration in serum was calculated as the percent of total cholesterol as determined by FPLC multiplied by the total serum cholesterol concentration.
In Examples 5-7, 9, 10 and 12-20 the test compounds were administered at a dose of 100 mg/kg. In Examples 1, 2, 3 and 11, the test compounds were administered at a dose of 50 mg/kg. In Example 4, the test compound was administered at a dose of 46 mg/kg and in Example 8 at a dose of 90 mg/kg. The duration of treatment for all examples was eight days.

Setting [1] is: Rattus norvegicus, feed or water, 192 h, read-out: HDL Cholesterol Level Increase (%).

For the compound `Cc1cc(Cl)ccc1N1CCCNC1=S` [Example 1, 1-(4-Chloro-2-methyl-phenyl)-3,4,5,6-tetrahydro-pyrimidine-2(1H)-thione], the melting point (commonly the temperature, or range, at which the solid turns liquid) was in the range of 266 to 268 °C. Also, in the data set with HDL cholesterol (setting [1]), the change in vivo at 50 mg/kg was determined as 86%.
For `Cc1cccc(Cl)c1N1CCCN(C)C1=S` [Example 13, 1-(6-Chloro-2-methyl-phenyl)-3-methyl-3,4,5,6-tetrahydro-pyrimidine-2(1H)-thione], the melting point fell in the range of 164 to 165 °C. Besides, the change in vivo at 100 mg/kg with HDL cholesterol (setting [1]) was 81%.
For `C=CCN1CCCN(c2ccc(Cl)cc2C)C1=S` [Example 10, 3-Allyl-1-(4-chloro-2-methyl-phenly)-3,4,5,6-tetrahydro-pyrimidine-2(1H)-thione], in the data set on HDL cholesterol, the “HDL Cholesterol Level Increase (%)” value amounted to 57%.
As for `Cc1cc(Cl)ccc1N1CCCN(CC(C)C)C1=S` [Example 17, 1-(4-Chloro-2-methyl-phenyl)-3-isobutyl-3,4,5,6-tetrahydro-pyrimidine-2(1H)-thione], the melting point lay in the range of 88 to 90 °C. Besides, the change in vivo at 100 mg/kg in the data set with HDL cholesterol (setting [1]) turned out to be 12%.
The like results for `CCN1CCCN(c2cc(Cl)ccc2C)C1=S` [Example 5, 1-(5-Chloro-2-methyl-phenyl)-3-ethyl-3,4,5,6-tetrahydro-pyrimidine-2(1H)-thione] were, in that order, 111 to 112 °C and 183%.
The like results for `Cc1ccc(Cl)cc1N1CCCN(C)C1=S` [Example 9, 1-(5-Chloro-2-methyl-phenyl)-3-methyl-3,4,5,6-tetrahydro-pyrimidine-2(1H)-thione] were, in that order, 143 to 145 °C and 143%.
The like results for `Cc1cccc(Cl)c1N1CCCN(C(C)C)C1=S` [Example 15, 1-(6-Chloro-2-methyl-phenyl)-3-isopropyl-3,4,5,6-tetrahydro-pyrimidine-2(1H)-thione] were, in that order, 135 to 136 °C and 86%.
The compound `S=C1NCCCN1c1ccccc1` [Example 2, 1-Phenyl-3,4,5,6-tetrahydro-pyrimidine-2(1H)-thione] had a melting point of 211 to 212 °C. In addition, the change in vivo at 50 mg/kg with HDL cholesterol (setting [1]) came to 20%.
The compound `Cc1ccc(Cl)cc1N1CCCN(C2CCC2)C1=S` [Example 19, 1-(5-Chloro-2-methyl-phenyl)-3-cyclobutyl-3,4,5,6-tetrahydro-pyrimidine-2(1H)-thione] returned a melting point of 152 to 154 °C. Further, the change in vivo at 100 mg/kg in the data set with HDL cholesterol (setting [1]) was found to be 37%.
For `Cc1cccc(C)c1N1CCCNC1=S` [Example 4, 1-(2,6-Dimethyl-phenyl)-3,4,5,6-tetrahydro-pyrimidine-2(1H)-thione], the melting point lay within 249 to 251 °C. For the same compound, the change in vivo at 46 mg/kg in the data set on HDL cholesterol (Rattus norvegicus, feed or water, 192 h, dose 46 mg/kg mixed in diet, read-out: HDL Cholesterol Level Increase (%)) is 34%.
Take `Cc1ccc(Cl)cc1N1CCCN(C(C)C)C1=S` [Example 6, 1-(5-Chloro-2-methyl-phenyl)-3-isopropyl-3,4,5,6-tetrahydro-pyrimidine-2(1H)-thione]: the melting point lay within 176 to 178 °C. For the same compound, in the data set on HDL cholesterol (setting [1]), the change in vivo at 100 mg/kg came to 137%.
In the case of `Cc1cccc(Cl)c1N1CCCN(CC(C)C)C1=S` [Example 20, 1-(6-Chloro-2-methyl-phenyl)-3-isobutyl-3,4,5,6-tetrahydro-pyrimidine-2(1H)-thione], the melting point fell in the range of 119 to 121 °C. Moreover, in the data set on HDL cholesterol (setting [1]), the change in vivo at 100 mg/kg amounted to 24%.
On the same counts, the results for `Cc1cc(Cl)ccc1N1CCCN(C(C)C)C1=S` [Example 7, 1-(4-Chloro-2-methyl-phenyl)-3-isopropyl-3,4,5,6-tetrahydro-pyrimidine-2(1H)-thione] are 147 to 149 °C and 92%.
The compound `Cc1cc(Cl)ccc1N1CCCN(C)C1=S` [Example 11, 1-(4-Chloro-2-methyl-phenyl)-3-methyl-3,4,5,6-tetrahydro-pyrimidine-2(1H)thione] gave a melting point of 143 to 145 °C. In the data set with HDL cholesterol (setting [1]), the change in vivo at 50 mg/kg came to 86%.
Consider `CCN1CCCN(c2c(C)cccc2Cl)C1=S` [Example 16, 1-(6-Chloro-2-methyl-phenyl)-3-ethyl-3,4,5,6-tetrahydro-pyrimidine-2(1H)-thione], for which the melting point was 88 to 90 °C. For the same compound, the change in vivo at 100 mg/kg in the data set on HDL cholesterol (setting [1]) is 85%.
For the compound `Cc1ccc(Cl)cc1N1CCCN(CC(C)C)C1=S` [Example 14, 1-(5-Chloro-2-methyl-phenyl)-3-isobutyl-3,4,5,6-tetrahydro-pyrimidine-2-(1H)-thione], in the data set with HDL cholesterol, the “HDL Cholesterol Level Increase (%)” value was found to be 66%.
Regarding `Cc1cccc(Cl)c1N1CCCN(C2CCC2)C1=S` [Example 18, 1-(6-Chloro-2-methyl-phenyl)-3-cyclobutyl-3,4,5,6-tetrahydro-pyrimidine-2(1H)-thione], the melting point was 89 to 91 °C. For the same compound, the change in vivo at 100 mg/kg in the data set on HDL cholesterol (setting [1]) amounted to 42%.
The like results for `C=CCN1CCCN(c2c(C)cccc2Cl)C1=S` [Example 12, 3-Allyl-1-(6-chloro-2-methyl-phenyl)-3,4,5,6-tetrahydro-pyrimidine-2(1H)-thione] were, in that order, 82 to 84 °C and 19%.
The compound `CCN1CCCN(c2ccc(Cl)cc2C)C1=S` [Example 3, 1-(4-Chloro-2-methyl-phenyl)-3-ethyl-3,4,5,6-tetrahydro-pyrimidine-2(1H)-thione] registered a melting point of 116 to 118 °C. For the same compound, the change in vivo at 50 mg/kg in the data set with HDL cholesterol (setting [1]) stood at 152%.
Regarding `C=CCN1CCCN(c2cc(Cl)ccc2C)C1=S` [Example 8, 3-Allyl-1-(5-chloro-2-methyl-phenyl)-3,4,5,6-tetrahydro-pyrimidine-2(1H)-thione], the melting point was in the range of 71 to 72 °C. Moreover, the change in vivo at 90 mg/kg with HDL cholesterol (Rattus norvegicus, feed or water, 192 h, dose 90 mg/kg mixed in diet, read-out: HDL Cholesterol Level Increase (%)) is 21%.

The record behind these values is US6340687B1, “Substituted tetrahydro-pyrimidine-2(1H)-thione HDL-C elevators useful as antiatherosclerotic agents” (American Home Products Corporation, priority 1997, dated 2002).
